Results reported in patent publication US4820694A, “Modifications of 3-O-demethylmycinose in macrocin and lactenocin” (priority 1986, dated 1989).
Values after ≈ are worked out from the molar mass of the structure shown. Where two headings read alike, the source gives them in different places.

Experiments:
[1] = tested on: Streptococcus Group D X66; assay: standard agar-dilution MIC assay; format: cell-based; settings: read-out: MIC
Procedure: (§1) The MIC's in Table III were determined by standard agar-dilution assays. The MIC's in Table IV were obtained using conventional brothdilution microtiter tests.

[2] = tested on: Streptococcus Group D 9960; assay: standard agar-dilution MIC assay; format: cell-based; settings: GROUPD9960, read-out: MIC
Procedure: as §1

[3] = tested on: Klebsiella pneumoniae X68; assay: standard agar-dilution MIC assay; format: cell-based; settings: Klebsiella pneumoniae, X68
Procedure: as §1

[4] = tested on: Pseudomonas aeruginosa X239; assay: standard agar-dilution MIC assay; format: cell-based; settings: Pseudomonas aeruginosa, X239
Procedure: as §1

[5] = tested on: Haemophilus influenzae 76; assay: standard agar-dilution MIC assay; format: cell-based; settings: Haemophilus influenzae, 76
Procedure: as §1

[6] = tested on: Staphylococcus aureus X1.1; assay: standard agar-dilution MIC assay; format: cell-based; settings: Staphylococcus aureus, X1.1
Procedure: as §1

[7] = tested on: Haemophilus influenzae C.L.; assay: standard agar-dilution MIC assay; format: cell-based; settings: Haemophilus influenzae
Procedure: as §1

[8] = tested on: Staphylococcus aureus X400; assay: standard agar-dilution MIC assay; format: cell-based; settings: Staphylococcus aureus, X400
Procedure: as §1

[9] = tested on: Streptococcus pyogenes C203; assay: standard agar-dilution MIC assay; format: cell-based; settings: Streptococcus pyogenes, C203
Procedure: as §1

[10] = tested on: Staphylococcus aureus V41; assay: standard agar-dilution MIC assay; format: cell-based; settings: Staphylococcus aureus, V41
Procedure: as §1

[11] = tested on: Escherichia coli EC14; assay: standard agar-dilution MIC assay; format: cell-based
Procedure: as §1

[12] = tested on: Staphylococcus epidermidis EPI1; assay: standard agar-dilution MIC assay; format: cell-based; settings: Staphylococcus epidermidis, EPI1
Procedure: as §1

[13] = tested on: Streptococcus pneumoniae Park I; assay: microbe, parasite or virus in culture; format: cell-based; settings: Streptococcus pneumoniae
Procedure: as §1

[14] = tested on: Staphylococcus aureus S13E; assay: microbe, parasite or virus in culture; format: cell-based; settings: Staphylococcus aureus, S13E
Procedure: as §1

[15] = tested on: Streptococcus pyogenes C203; assay: protection of mice experimentally infected with S. pyogenes C203; format: in vivo; settings: mice, mg/kg × 2, doses given 1 and 4 hours postinfection, read-out: ED50
Procedure: The formula 1 compounds have shown in vivo antimicrobial activity against experimentally-induced infections in laboratory animals. When two doses of test compound were administered to mice experimentally infected with S. pyrogenes C203, the activity observed was measured as an ED50 value [effective dose in mg/kg to protect 50% of the test animals: see Warren Wick, et al., J. Bacteriol. 81, 233-235 (1961)].
^a mg/kg × 2; doses given 1 and 4 hours postinfection

[16] = tested on: Mycoplasma gallisepticum 29C; assay: broth-dilution microtiter MIC test; format: cell-based; settings: Mycoplasmoides gallisepticum, 29C
Procedure: as §1

[17] = tested on: Staphylococcus aureus 19C; assay: broth-dilution microtiter MIC test; format: cell-based; settings: Staphylococcus aureus, 19C
Procedure: as §1

[18] = tested on: Mycoplasma gallisepticum 36H; assay: broth-dilution microtiter MIC test; format: cell-based; settings: Mycoplasmoides gallisepticum, 36H
Procedure: as §1

[19] = tested on: Pasteurella multocida 60A; assay: broth-dilution microtiter MIC test; format: cell-based; settings: Pasteurella multocida, 60A
Procedure: as §1

[20] = tested on: Mycoplasma gallisepticum 15E; assay: broth-dilution microtiter MIC test; format: cell-based; settings: Mycoplasmoides gallisepticum, 15E
Procedure: as §1

[21] = tested on: Mycoplasma synoviae 40A; assay: broth-dilution microtiter MIC test; format: cell-based; settings: Mycoplasmopsis synoviae, 40A
Procedure: as §1

[22] = tested on: Mycoplasma hyorhinis 29E; assay: broth-dilution microtiter MIC test; format: cell-based; settings: Mycoplasma, 29E
Procedure: as §1

[23] = tested on: Pasteurella hemolytica 22C; assay: broth-dilution microtiter MIC test; format: cell-based; settings: Pasteurella, 22C
Procedure: as §1

[24] = tested on: Pasteurella multocida 40G; assay: broth-dilution microtiter MIC test; format: cell-based; settings: Pasteurella multocida, 40G
Procedure: as §1

[25] = tested on: Pasteurella hemolytica 41D; assay: broth-dilution microtiter MIC test; format: cell-based; settings: Pasteurella, 41D
Procedure: as §1

[26] = tested on: Pasteurella hemolytica 23C; assay: broth-dilution microtiter MIC test; format: cell-based; settings: Pasteurella, 23C
Procedure: as §1

[27] = tested on: Pasteurella multocida 17E; assay: broth-dilution microtiter MIC test; format: cell-based; settings: Pasteurella multocida, 17E
Procedure: as §1

[28] = tested on: Streptococcus sp. 19F; assay: broth-dilution microtiter MIC test; format: cell-based; settings: Streptococcus, SP.19F
Procedure: as §1

[29] = tested on: Bordetella bronchiseptica; assay: broth-dilution microtiter MIC test; format: cell-based; settings: Bordetella bronchiseptica
Procedure: as §1

[30] = tested on: Pasteurella multocida 68C; assay: broth-dilution microtiter MIC test; format: cell-based; settings: Pasteurella multocida, 68C
Procedure: as §1

[31] = tested on: Pasteurella multocida 22A; assay: broth-dilution microtiter MIC test; format: cell-based; settings: Pasteurella multocida, 22A
Procedure: as §1

[32] = tested on: Staphylococcus epidermidis 222; assay: standard agar-dilution MIC assay; format: cell-based; settings: Staphylococcus epidermidis, 222
Procedure: as §1

[33] = broth-dilution microtiter, read-out: MIC

Row | SMILES | MIC [1] | MIC [2] | MIC [5] | MIC [6] | MIC [8] | MIC [9] | MIC [10] | MIC [12] | MIC [13] | MIC [14] | MIC [16] | MIC [17] | MIC [18] | MIC [20] | MIC [21] | MIC [22] | MIC [24] | MIC [28] | MIC [30] | other results
1 | CCC1OC(=O)CC(O)C(C)C(OC2OC(C)C(O)C(N(C)C)C2O)C(CC=O)CC(C)C(=O)C=CC(C)=CC1COC1OC(C)C(OC(=O)CC(C)C)C(OC(=O)CC(C)C)C1OC (stereo not drawn) [Compound 28, 3",4"-Di-O-isovaleryl-lactenocin] | 4 µg/mL (≈ 4.32 µM) | 4 µg/mL (≈ 4.32 µM) | 64 µg/mL (≈ 69.1 µM) | 2 µg/mL (≈ 2.16 µM) | 4 µg/mL (≈ 4.32 µM) | 2 µg/mL (≈ 2.16 µM) | 2 µg/mL (≈ 2.16 µM) | 2 µg/mL (≈ 2.16 µM) | 0.5 µg/mL (≈ 0.54 µM) | 2 µg/mL (≈ 2.16 µM) | 1.56 µg/mL (≈ 1.68 µM) | 6.25 µg/mL (≈ 6.75 µM) | 50 µg/mL (≈ 54 µM) | 25 µg/mL (≈ 27 µM) | 12.5 µg/mL (≈ 13.5 µM) | 6.25 µg/mL (≈ 6.75 µM) | 50 µg/mL (≈ 54 µM) | 3.12 µg/mL (≈ 3.37 µM) | 50 µg/mL (≈ 54 µM) | MIC ([3]; agar-dilution, read-out: MIC): > 128 µg/mL; MIC ([4]; agar-dilution, read-out: MIC): > 128 µg/mL; MIC ([7]; agar-dilution, Ampicillin-sensitive strain, read-out: MIC): 128 µg/mL (≈ 138 µM); MIC ([11]; agar-dilution, read-out: MIC): > 128 µg/mL; ED50 ([15]; C203, Oral): 21.4 mg/kg; ED50 ([15]; C203, sc, Subcutaneous): > 6.25 mg/kg; MIC ([19]; broth-dilution microtiter, Avian isolate, read-out: MIC): > 50 µg/mL; MIC [23, 33]: > 50 µg/mL; MIC [25, 33]: > 50 µg/mL; MIC [26, 33]: > 50 µg/mL; MIC ([27]; broth-dilution microtiter, Bovine isolate, read-out: MIC): > 50 µg/mL; MIC [29, 33]: > 50 µg/mL; MIC [31, 33]: > 50 µg/mL
2 | CCC1OC(=O)CC(O)C(C)C(OC2OC(C)C(O)C(N(C)C)C2O)C(CC=O)CC(C)C(=O)C=CC(C)=CC1COC1OC(C)C(OC(=O)Cc2ccccc2)C(O)C1OC (stereo not drawn) [Compound 30, 4"-O-Phenylacetyl-lactenocin] | 0.5 µg/mL (≈ 0.571 µM) | 1 µg/mL (≈ 1.14 µM) | 8 µg/mL (≈ 9.13 µM) | 0.5 µg/mL (≈ 0.571 µM) | 1 µg/mL (≈ 1.14 µM) | 0.25 µg/mL (≈ 0.285 µM) | 0.5 µg/mL (≈ 0.571 µM) | 0.5 µg/mL (≈ 0.571 µM) | 0.5 µg/mL (≈ 0.571 µM) | 0.5 µg/mL (≈ 0.571 µM) | 0.39 µg/mL (≈ 0.445 µM) | 6.25 µg/mL (≈ 7.13 µM) | 25 µg/mL (≈ 28.5 µM) | 12.5 µg/mL (≈ 14.3 µM) | 1.56 µg/mL (≈ 1.78 µM) | 1.56 µg/mL (≈ 1.78 µM) | 25 µg/mL (≈ 28.5 µM) | 1.56 µg/mL (≈ 1.78 µM) | 12.5 µg/mL (≈ 14.3 µM) | MIC [32]: 0.25 µg/mL (≈ 0.285 µM); MIC [3]: > 128 µg/mL; MIC [4]: > 128 µg/mL; MIC [7]: 8 µg/mL (≈ 9.13 µM); MIC [11]: > 128 µg/mL; MIC [19]: 25 µg/mL (≈ 28.5 µM); MIC [23]: 50 µg/mL (≈ 57.1 µM); MIC [25]: 50 µg/mL (≈ 57.1 µM); MIC [26]: 25 µg/mL (≈ 28.5 µM); MIC [27]: 25 µg/mL (≈ 28.5 µM); MIC [29]: > 50 µg/mL; MIC [31]: 25 µg/mL (≈ 28.5 µM)
